# Measurements taken from patent US8324264B1, “Inhibitors of bacterial biofilms and related methods” (Sequoia Sciences, Inc., priority 2011, dated 2012).
# Legend:
# [1] = system: E. coli biofilms; assay: Biofilm growth assay (spreading biofilm on semi-solid agar), E. coli; assay type: cell-based; conditions: biofilm growth assay, overnight 37° C., vs negative controls, Tables 1-5; for IC85: Escherichia coli, read-out: E. coli: concentration that reduces the area of the spreading biofilm by greater than or equal to 85%
# Procedure, shortened: (§1)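 Values are compound concentrations (μg/ml) that cut the spreading-biofilm zone area by ≥85% relative to negative controls after overnight 37 °C growth from 5 μL central inoculum. E. coli plates: LB, 0.6% agar, 0.5% glucose; P. aeruginosa plates: M8 agar plus 0.2% glucose, 100 μM CaCl2, 1 mM MgSO4, 0.5% Casamino acids.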
# [2] = system: P. aeruginosa biofilms; assay: Biofilm growth assay (spreading biofilm on semi-solid agar), P. aeruginosa; assay type: cell-based; conditions: biofilm growth assay, overnight 37° C., vs negative controls, Tables 1-5; for IC85: Pseudomonas aeruginosa, read-out: P. aeruginosa: concentration that reduces the area of the spreading biofilm by greater than or equal to 85%
# Procedure, shortened: as §1
Compound,E. coli: concentration that reduces the area of the spreading biofilm by greater than or equal to 85% [1] [µg/mL],P. aeruginosa: concentration that reduces the area of the spreading biofilm by greater than or equal to 85% [2] [µg/mL],IC85 [1] [µg/mL],IC85 [2] [µg/mL]
"Cc1ccc(C2=C3C4CC(C)(C)CC[C@]4(C(=O)O)CC[C@@]3(C)[C@]3(C)CCC4C(C)(C)c5n[nH]c(N)c5C[C@]4(C)C3C2)cc1N (stereo partly drawn) [Example 20, (4aS,6aS,6bR,13aR)-12-Amino-15-(3-amino-4-methylphenyl)-2,2,6a,6b,9,9,13a-heptamethyl-2,3,4,4a,5,6,6a,6b,7,8,8a,9,11,13,13a,13b,14,15b-octadecahydro-1H-chryseno[1,2-f]indazole-4-a-carboxylic acid]",2,0.5,–,–
"CNc1ccc(C2=C3[C@@H]4CC(C)(C)CC[C@]4(C(=O)O)CC[C@@]3(C)[C@]3(C)CC[C@H]4C(C)(C)c5n[nH]c(N)c5C[C@]4(C)C3C2)cn1 (stereo partly drawn) [Example 43, (4aS,6aS,6bR,8aR,13aR,15bS)-12-Amino-2,2,6a,6b,9,9,13a-heptamethyl-15-(6-(methylamino)pyridin-3-yl)-2,3,4,4a,5,6,6a,6b,7,8,8a,9,11,13,13a,13b,14,15b-octadecahydro-1H-chryseno[1,2-f]indazole-4-a-carboxylic acid]",1,1,–,–
"CC1(C)CC[C@]2(C(=O)O)CC[C@]3(C)C(=C(c4cccc(N)c4)CC4[C@@]5(C)Cc6c(n[nH]c6N)C(C)(C)[C@@H]5CC[C@]43C)[C@@H]2C1 (stereo partly drawn) [Example 15, (4aS,6aS,6bR,8aR,13aR,15bS)-12-Amino-15-(3-aminophenyl)-2,2,6a,6b,9,9,13a-heptamethyl-2,3,4,4a,5,6,6a,6b,7,8,8a,9,11,13,13a,13b,14,15b-octadecahydro-1H-chryseno[1,2-f]indazole-4-a-carboxylic acid]",1,0.25,–,–
CC1(C)CC[C@]2(C(=O)O)CC[C@]3(C)C(C(=O)C=C4[C@@]5(C)Cc6c(n[nH]c6N)C(C)(C)[C@@H]5CC[C@]43C)[C@@H]2C1 (stereo partly drawn) [M],–,–,8,8
"CC1(C)CC[C@]2(C(=O)O)CC[C@]3(C)C(=C(c4cccc(O)c4)CC4[C@@]5(C)Cc6c(n[nH]c6N)C(C)(C)C5CC[C@]43C)C2C1 (stereo partly drawn) [Example 16, (4aS,6aS,6bR,13aR)-12-Amino-15-(3-hydroxyphenyl)-2,2,6a,6b,9,9,13a-heptamethyl-2,3,4,4a,5,6,6a,6b,7,8,8a,9,11,13,13a,13b,14,15b-octadecahydro-1H-chryseno[1,2-f]indazole-4-a-carboxylic acid]",–,–,2,1
"CC1(C)CC[C@]2(C(=O)O)CC[C@]3(C)C(=C(c4ccc5c(c4)CCN5)CC4[C@@]5(C)Cc6c(n[nH]c6N)C(C)(C)[C@@H]5CC[C@]43C)[C@@H]2C1 (stereo partly drawn) [Example 11, (4aS,6aS,6bR,13aR)-12-Amino-15-(indolin-5-yl)-2,2,6a,6b,9,9,13a-heptamethyl-2,3,4,4a,5,6,6a,6b,7,8,8a,9,11,13,13a,13b,14,15b-octadecahydro-1H-chryseno[1,2-f]indazole-4-a-carboxylic acid]",–,–,0.5,0.5
"CC1(C)CC[C@]2(C(=O)O)CC[C@]3(C)C(=C(c4ccoc4CN4CCCC4)CC4[C@@]5(C)Cc6c(n[nH]c6N)C(C)(C)C5CC[C@]43C)C2C1 (stereo partly drawn) [Example 37, (4aS,6aS,6bR,13aR)-12-Amino-2,2,6a,6b,9,9,13a-heptamethyl-15-(2-(pyrrolidin-1-ylmethyl)furan-3-yl)-2,3,4,4a,5,6,6a,6b,7,8,8a,9,11,13,13a,13b,14,15b-octadecahydro-1H-chryseno[1,2-f]indazole-4-a-carboxylic acid]",1,>1,–,–
"CC1(C)CC[C@]2(c3nnco3)CC[C@]3(C)C(=CCC4[C@@]5(C)Cc6c(n[nH]c6N)C(C)(C)C5CC[C@]43C)C2C1 (stereo partly drawn) [Compound 67, (4aS,6aS,6bR,13aR)-2,2,6a,6b,9,9,13a-Heptamethyl-4-a-(1,3,4-oxadiazol-2-yl)-2,3,4,4a,5,6,6a,6b,7,8,8a,9,11,13,13a,13b,14,15b-octadecahydro-1H-chryseno[1,2-f]indazol-12-amine]",2,1,–,–
CC1(C)CC[C@]2(C(=O)O)CC[C@]3(C)C(=CCC4[C@@]5(C)Cc6c(n[nH]c6CO)C(C)(C)C5CC[C@]43C)C2C1 (stereo partly drawn) [G],–,–,> 8,> 8
"CC1(C)CC[C@]2(c3n[nH]c(O)c3F)CC[C@]3(C)C(=CCC4[C@@]5(C)Cc6c(n[nH]c6N)C(C)(C)C5CC[C@]43C)C2C1 (stereo partly drawn) [Compound 83, 3-((4aS,6aS,6bR,13aR)-12-Amino-2,2,6a,6b,9,9,13a-heptamethyl-2,3,4,4a,5,6,6a,6b,7,8,8a,9,11,13,13a,13b,14,15b-octadecahydro-1H-chryseno[1,2-f]indazol-4-a-yl)-4-fluoro-1H-pyrazol-5-ol]",0.5,0.25,–,–
"CC1(C)CC[C@]2(C(=O)O)CC[C@]3(C)C(=C(c4coc(CN5CCCC5)c4)CC4[C@@]5(C)Cc6c(n[nH]c6N)C(C)(C)C5CC[C@]43C)C2C1 (stereo partly drawn) [Example 38, (4aS,6aS,6bR,13aR)-12-Amino-2,2,6a,6b,9,9,13a-heptamethyl-15-(5-(pyrrolidin-1-ylmethyl)furan-3-yl)-2,3,4,4a,5,6,6a,6b,7,8,8a,9,11,13,13a,13b,14,15b-octadecahydro-1H-chryseno[1,2-f]indazole-4-a-carboxylic acid]",2,1,–,–
"CC1(C)CC[C@]2(C(=O)O)CC[C@]3(C)C(=C(c4ccc(N5CCCC5)nc4)CC4[C@@]5(C)Cc6c(n[nH]c6N)C(C)(C)C5CC[C@]43C)C2C1 (stereo partly drawn) [Example 45, (4aS,6aS,6bR,13aR)-12-Amino-2,2,6a,6b,9,9,13a-heptamethyl-15-(6-(pyrrolidin-1-yl)pyridin-3-yl)-2,3,4,4a,5,6,6a,6b,7,8,8a,9,11,13,13a,13b,14,15b-octadecahydro-1H-chryseno[1,2-f]indazole-4-a-carboxylic acid]",1,0.5,–,–
"CC1(C)CC[C@]2(C(=O)O)CC[C@]3(C)C(=C(c4cccc5cnccc45)CC4[C@@]5(C)Cc6c(n[nH]c6N)C(C)(C)C5CC[C@]43C)C2C1 (stereo partly drawn) [Example 46, (4aS,6aS,6bR,13aR)-12-Amino-15-(isoquinolin-5-yl)-2,2,6a,6b,9,9,13a-heptamethyl-2,3,4,4a,5,6,6a,6b,7,8,8a,9,11,13,13a,13b,14,15b-octadecahydro-1H-chryseno[1,2-f]indazole-4-a-carboxylic acid]",1,0.5,–,–
"CC1(C)CC[C@]2(C(=O)O)CC[C@]3(C)C(=C(c4ccc(N5CCC(N)CC5)nc4)CC4[C@@]5(C)Cc6c(n[nH]c6N)C(C)(C)C5CC[C@]43C)C2C1 (stereo partly drawn) [Example 57, (4aS,6aS,6bR,13aR)-12-Amino-15-(6-(4-aminopiperidin-1-yl)pyridin-3-yl)-2,2,6a,6b,9,9,13a-heptamethyl-2,3,4,4a,5,6,6a,6b,7,8,8a,9,11,13,13a,13b,14,15b-octadecahydro-1H-chryseno[1,2-f]indazole-4-a-carboxylic acid]",1,>2,–,–
"C=C(C)[C@@H]1CC[C@]2(CO)CC[C@]3(C)[C@H](CC[C@@H]4[C@@]5(C)CC[C@H](O)C(C)(C)[C@@H]5CC[C@]43C)[C@@H]12 [Betulin, reference compound]",–,–,> 16,16
"Cc1c([C@]23CCC(C)(C)CC2C2=CCC4[C@@]5(C)Cc6c(n[nH]c6N)C(C)(C)C5CC[C@@]4(C)[C@]2(C)CC3)n[nH]c1O (stereo partly drawn) [Compound 82, 3-((4aS,6aS,6bR,13aR)-12-Amino-2,2,6a,6b,9,9,13a-heptamethyl-2,3,4,4a,5,6,6a,6b,7,8,8a,9,11,13,13a,13b,14,15b-octadecahydro-1H-chryseno[1,2-f]indazol-4-a-yl)-4-methyl-1H-pyrazol-5-ol]",1,0.5,–,–
"CC1(C)CC[C@]2(C(=O)O)CC[C@]3(C)C(=C(c4ccc(N)nc4)CC4[C@@]5(C)Cc6c(n[nH]c6N)C(C)(C)[C@@H]5CC[C@]43C)[C@@H]2C1 (stereo partly drawn) [Example 41, (4aS,6aS,6bR,8aR,13aR,15bS)-12-Amino-15-(6-aminopyridin-3-yl)-2,2,6a,6b,9,9,13a-heptamethyl-2,3,4,4a,5,6,6a,6b,7,8,8a,9,11,13,13a,13b,14,15b-octadecahydro-1H-chryseno[1,2-f]indazole-4-a-carboxylic acid]",2,1,–,–
CC1(C)CC[C@]2(C(=O)O)CC[C@]3(C)[C@H](C(=O)C=C4[C@@]5(C)C=C(C#N)C(=O)C(C)(C)[C@@H]5CC[C@]43C)[C@@H]2C1 [L],–,–,> 16,> 16
